For orientation: GI50 means the concentration that inhibits growth by half. By TGI is commonly meant the concentration at which net growth stops.

Test systems include 786-0 renal; DU-145 prostate; HCT-116 colon; HCT-15 colon; LOX IMVI melanoma; M14 melanoma; RPMI-8226 leukemia; SN12C renal; SNB-19 CNS; SR leukemia.
Common to all, as to assay: DTP human tumour cell line panel, 48 h

Several values for one entry are separate records, joined by “and”; a condition that tells them apart may be missing. Equal entries are not always repeated.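 In this assay, cells in 96-well plates receive the compound at five concentrations for 48 hours. Endpoints are linearly interpolated between the surrounding concentrations. GI50 marks 50% less growth. The concentration for full growth arrest is given as TGI.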

Turning to `COc1ccc(-c2nn(-c3cccc(Cl)c3)cc2/C=C2\NC(=S)N(c3ccc(Cl)cc3)C2=O)cc1`, the GI50 is 5.57 µM with 786-0 renal; 8.75 µM in the test with DU-145 prostate; 3.18 µM in the test on HCT-116 colon; 7.94 µM in the test on HCT-15 colon; 5.97 µM with LOX IMVI melanoma; 4.39 µM in the test on M14 melanoma. The GI50 was 3.53 µM with RPMI-8226 leukemia, 5.48 µM in the test with SN12C renal, 6.54 µM with SNB-19 CNS and 3.59 µM in the test on SR leukemia. Also, the TGI was greater than 25 µM in the test on 786-0 renal; greater than 25 µM in the test with DU-145 prostate; 7.75 µM in the test on HCT-116 colon; greater than 25 µM with HCT-15 colon; greater than 25 µM in the test with LOX IMVI melanoma; 10.2 µM in the test with M14 melanoma. The TGI in the test on RPMI-8226 leukemia was 15.9 µM; in the test with SN12C renal, greater than 25 µM; in the test with SNB-19 CNS it was greater than 25 µM; in the test with SR leukemia it was 7.29 µM.
For the molecule `O/N=C1/CCCC/C1=C/C=C/c1ccccc1`, the TGI with 786-0 renal was 55 µM; with DU-145 prostate, 62.9 µM; with HCT-116 colon it was 29.7 µM; with HCT-15 colon, 36.2 µM; in the test with LOX IMVI melanoma, 31.3 µM; in the test with M14 melanoma, 40.9 µM. For the same molecule, the TGI with RPMI-8226 leukemia was 71.7 µM; in the test on SN12C renal, 33.4 µM; with SNB-19 CNS, greater than 100 µM; with SR leukemia, greater than 100 µM.
Take `Cc1cccc2c(C3=C(c4cn(C)c5ccccc45)C(=O)NC3=O)cn(C)c12`: the GI50 in the test with 786-0 renal was greater than 22.1 µM; in the test with DU-145 prostate, greater than 25 µM; in the test on HCT-116 colon, greater than 15.8 µM; in the test on HCT-15 colon it was 11.5 µM; in the test on LOX IMVI melanoma, greater than 22 µM; in the test on M14 melanoma, greater than 25 µM. Besides, the GI50 in the test on RPMI-8226 leukemia was greater than 18.6 µM; in the test with SN12C renal, greater than 25 µM; in the test with SNB-19 CNS, greater than 25 µM; with SR leukemia, 4.88 µM. In addition, the TGI with 786-0 renal, in the test with DU-145 prostate, in the test on HCT-116 colon, in the test with HCT-15 colon, in the test with LOX IMVI melanoma and with M14 melanoma was greater than 25 µM each time. The TGI in the test with RPMI-8226 leukemia, in the test with SN12C renal, with SNB-19 CNS and in the test on SR leukemia was greater than 25 µM in each case.
`CN(C)c1ccc(C(=S)c2ccc(N(C)C)cc2)cc1`: the GI50 was 10.3 µM in the test with 786-0 renal; 20.3 µM in the test with DU-145 prostate; 3.71 µM with HCT-116 colon; 4.27 µM in the test with HCT-15 colon; 5.86 µM in the test on LOX IMVI melanoma; 3.33 µM with M14 melanoma. Also, the GI50 in the test on RPMI-8226 leukemia was 9.89 µM; with SN12C renal, 5.91 µM; in the test with SNB-19 CNS it was 6.16 µM; in the test with SR leukemia it was 3.75 µM. For the same molecule, the TGI with 786-0 renal was greater than 100 µM; in the test on DU-145 prostate, greater than 100 µM; in the test with HCT-116 colon, greater than 100 µM; with HCT-15 colon it was greater than 100 µM; in the test on LOX IMVI melanoma, 88.6 µM; with M14 melanoma it was greater than 100 µM. The TGI in the test with RPMI-8226 leukemia was greater than 100 µM; in the test with SN12C renal, greater than 100 µM; in the test with SNB-19 CNS it was greater than 100 µM; in the test on SR leukemia it was 92.6 µM.
Take `COc1cc2c(Oc3ccc(NC(=O)C4(C(=O)Nc5ccc(F)cc5)CC4)cc3F)ccnc2cc1OCCCN1CCOCC1`: the GI50 in the test on 786-0 renal was 1.61 µM and 1.54 µM; with DU-145 prostate, 1.52 µM and 1.98 µM; in the test on HCT-116 colon, 0.609 µM and 0.586 µM; in the test on HCT-15 colon, 0.935 µM and 1.03 µM; with LOX IMVI melanoma, 0.713 µM; in the test with M14 melanoma, 0.479 µM and 0.54 µM. For the same molecule, the GI50 was 2.02 µM and 1.68 µM in the test with RPMI-8226 leukemia; 0.266 µM and 0.259 µM with SN12C renal; 1.99 µM and 2.14 µM with SNB-19 CNS; 0.932 µM and 0.583 µM in the test with SR leukemia. Moreover, the total growth inhibition concentration (TGI) in the test with 786-0 renal was 3.11 µM and 2.99 µM; with DU-145 prostate, 4.39 µM and > 10 µM; with HCT-116 colon, 2.02 µM and 2.06 µM; in the test with HCT-15 colon it was 3.8 µM and 4.04 µM; with LOX IMVI melanoma, 1.95 µM; in the test on M14 melanoma, 1.83 µM and 1.96 µM. The TGI was 5.02 µM and 7.07 µM in the test with RPMI-8226 leukemia; 13.3 µM and > 10 µM with SN12C renal; 5.77 µM and > 10 µM in the test on SNB-19 CNS; 3.45 µM and 2.78 µM in the test on SR leukemia.
For `CC(=O)N[C@H](C)[C@@H](O)[C@@H](C)[C@@H]1OC(=O)/C=C/C=C(C)\C=C\[C@]2(C)C[C@@H](NS(C)(=O)=O)C=C[C@@H]2/C=C(C)/C=C/[C@H]1C`, the GI50 is 0.0469 µM and 0.0185 µM with 786-0 renal; 0.00172 µM and 0.00435 µM with HCT-116 colon; 0.0359 µM and 0.0337 µM with HCT-15 colon; 0.00271 µM and 0.00743 µM in the test with LOX IMVI melanoma; 0.00309 µM in the test on M14 melanoma; 0.00766 µM and 0.0153 µM with RPMI-8226 leukemia. Moreover, the GI50 with SN12C renal was 0.00723 µM and 0.0129 µM; with SNB-19 CNS, 0.039 µM and 0.0228 µM; in the test on SR leukemia, 0.00606 µM and 0.00719 µM. In addition, the TGI in the test on 786-0 renal was greater than 43.5 µM; with DU-145 prostate, greater than 43.5 µM; in the test on HCT-116 colon, greater than 43.5 µM; with HCT-15 colon, greater than 43.5 µM; in the test on LOX IMVI melanoma, 0.00873 µM and 0.0148 µM; in the test on RPMI-8226 leukemia, greater than 43.5 µM. Further, the TGI in the test on SN12C renal, in the test on SNB-19 CNS and with SR leukemia was greater than 43.5 µM throughout.
`C[C@H]1CCC/C=C/C2CC(OC(=O)CN(C)C)CC2C(OC(=O)CN(C)C)/C=C/C(=O)O1` (stereo partly specified): the GI50 is 0.107 µM in the test with 786-0 renal; 0.615 µM with DU-145 prostate; 0.762 µM in the test with HCT-116 colon; 0.272 µM with HCT-15 colon; 1.16 µM in the test with LOX IMVI melanoma; 0.178 µM with M14 melanoma. Also, the GI50 in the test with RPMI-8226 leukemia is 0.712 µM; with SN12C renal, 0.391 µM; in the test with SNB-19 CNS it was 2.76 µM; with SR leukemia, 0.38 µM. For the same molecule, the TGI is greater than 100 µM in the test on DU-145 prostate; 16.7 µM in the test on HCT-116 colon; greater than 32.4 µM in the test with HCT-15 colon; 2.67 µM in the test on LOX IMVI melanoma; 4.65 µM in the test on M14 melanoma; greater than 81.4 µM in the test with RPMI-8226 leukemia. The total growth inhibition concentration (TGI) in the test on SN12C renal is 8.33 µM; in the test with SNB-19 CNS it was greater than 100 µM; with SR leukemia, 10.1 µM.
For `C[C@@H]1CC[C@H]2[C@@H](C)C(O)O[C@@H]3O[C@]4(C)CC[C@@H]1[C@]32OO4` (stereo partly specified), the GI50 with 786-0 renal is 1.59 µM; in the test on DU-145 prostate it was 5.27 µM; with HCT-116 colon, 0.141 µM; in the test on HCT-15 colon, 0.141 µM; in the test on LOX IMVI melanoma it was 0.309 µM; in the test with M14 melanoma, 1.24 µM. Further, the GI50 is 0.143 µM in the test on RPMI-8226 leukemia, 1.37 µM with SN12C renal, 3.39 µM in the test on SNB-19 CNS and 0.199 µM in the test with SR leukemia. The TGI in the test on 786-0 renal is greater than 48.8 µM; in the test with DU-145 prostate, 17.4 µM; with HCT-116 colon it was 3.55 µM; in the test on HCT-15 colon it was 13.8 µM; in the test with LOX IMVI melanoma it was 0.973 µM; in the test with M14 melanoma, 24.2 µM. Moreover, the TGI with SN12C renal was greater than 72.3 µM; in the test with SNB-19 CNS, greater than 72.6 µM; in the test on SR leukemia, 0.898 µM.
